# Assay results as given in patent US20240374680A1, “PHARMACEUTICAL COMPOSITION FOR TREATMENT OF VIRAL INFECTIONS” (Virenc AB, priority 2021, published 2024).
# Where no end group is shown, it is not given here.
# Experiments:
# Langat virus (LGTV) [1] = assay type: biochemical; conditions: 2 h
# [2] = system: Influenza A virus (H1N1/CA09pdm); assay: Influenza A virus inhibition assay (plaque assay); assay type: cell-based; conditions: Influenza A virus (1×10^3) pre-treated 1 h at 37° C.; read-out: concentration for 50% reduction of influenza A PFU
# SARS-CoV-2 = SARS-CoV-2 virus inhibition assay (plaque assay); assay type: cell-based, Severe Acute Respiratory Syndrome Coronavirus 2; conditions: SARS-CoV-2 (1×10^3) exposed 1 h at 37° C., then Vero cells; read-out: concentration for 50% reduction of PFU
# Langat virus (LGTV) [3] = assay type: cell-based
# [4] = Carboxyfluorescein (CF) release assay; assay type: biochemical
# Protocol: Liposomes were prepared by thin film hydration, followed by extrusion^19. Stock solutions of the lipids 1-palmitoyl-2-oleoyl-sn-glycero3-phosphatidylcholine (POPC), 1-palmitoyl-2-oleoyl-sn-glycero-3-phosphoL-serine (POPS) and cholesterol (Chol) were mixed at molar ratio 95:0:5, 65:30:5, 70:0:30, 91:1:8 and 81:11:8. The solvent was slowly evaporated via nitrogen stream, then the vials were dried in a vacuum desiccator overnight. Dry films were hydrated by addition of 1 mL 5(6)-carboxyfluorescein solution. The CF solution, presenting self-quenching concentration of CF, was prepared with 50 mM CF dissolved in 10 mM PB buffer and 90 mM NaCl, followed by pH adjustment. CF solution was dispensed on the lipid cake and incubated for 10 min under gentle shaking (50 min-1 on orbital shaker), followed by 1 min vortexing. The liposomes were extruded 21 times with a mini extruder (Avanti Polar Lipids, Inc.), through a 0.1 um membrane (Nucleapore track-etched hydrophilic membrane). The lipids were purified by gel filtration through a PD Mini Trap G-25 column by elution in PB buffer (10 mM).
# To study peptide efficacy on liposome membrane disruption, the liposome fluorescence was monitored upon peptide addition by microplate reader (Tecan Infinite M1000 Pro, λex=485 nm, λem=520 nm). Liposomes were diluted to a final concentration of 25 μM with 10 mM PB buffer and incubated with PLNC8 α, PLNC8 β and PLNC8 α/β at concentration of 10^−5-10^2 μM in a 96 well plate at a final volume of 200 μL. Due to the self-quenching concentration of carboxyfluorescein (CF) inside the liposomes, any fluorescence of the liposome-peptide system could be attributed to the liposome membrane disruption. Fluorescence was monitored prior to peptide addition (F0), and continuatively for 30 min. Total CF release (FT) was achieved through addition of 1% Triton X-100. Instantaneous CF release (%) was calculated through the formula 100×(F−F0)/(FT−F0), where F is the instantaneous fluorescence.
# Kunjin virus (KUNV) [5] = assay: Flavivirus inhibition assay, crystal violet-based plaque assay (Vero cells); assay type: cell-based; conditions: for reduction of viral load: L- or D-PLNC8 αβ (1:1)
# Kunjin virus (KUNV) [6] = assay: Peptide treatment of KUNV-infected A549 cells (viral mRNA, extracellular virions); conditions: A549 infected 1 h, then 10 μM, 48 h; cell culture media
# human cells = conditions: previously shown (ref. 16); cited from earlier work
substance,measurement,setting,value
SVPTSVYTLGIKILWSAYKHRKTIEKSFNKGFYH [L-PLNC8 β],permeabilization of the viral envelope (Sytox Green),Langat virus (LGTV) [1],permeabilization of LGTV
same,IC50,[2],> 20 µM
same,IC50,SARS-CoV-2,900 to 1000 nM
same,decrease of viral load,Langat virus (LGTV) [3],> 99%
Plantaricin NC8 (PLNC8) αβ [PLNC8 αβ],susceptibility of liposomes (CF release),"[4]; POPC:POPS:Chol (70:0:30), mimicking a eukaryotic plasma membrane",resilient
same,susceptibility of liposomes (CF release),"[4]; POPC:POPS:Chol (81:11:8), mimicking a eukaryotic ER membrane",very susceptible
same,susceptibility of liposomes (CF release),[4]; POPC:POPS:Chol (91:1:8),more susceptible
same,reduction of viral load,"Kunjin virus (KUNV) [5]; 0.1 μM, KUNV MOI 0.1, 0.01, 0.001, 1 h",80%
same,reduction of viral load,"Kunjin virus (KUNV) [5]; 1 μM, KUNV MOI 0.1, 0.01, 0.001, 1 h",95%
same,elimination of virions,"Kunjin virus (KUNV) [5]; ≥10 μM, KUNV MOI 0.1, 0.01, 0.001, 1 h",completely eliminates all virions
same,reduction of extracellular virion load,Kunjin virus (KUNV) [6],70-80%
same,cytotoxicity towards human cells,human cells,no cytotoxicity towards human cells
PLNC8 β: peptide of SEQ ID NO:1; statement covers L- and D-enantiomers (FIG. 7) (SVPTSVYTLGIKILWSAYKHRKTIEKSFNKGFYH; also: L- or D-enantiomer covered; listed as Lactobacillus plantarum),"efficiency at eliminating KUNV, single peptides compared","Kunjin virus (KUNV) [5]; 20 μM, L- and D-enantiomers (FIG. 7)",more efficient than PLNC8 α at eliminating KUNV
"SVPTSVYTLGIKILWSAYKHRKTIEKSFNKGFYH, SEQ ID NO:1 [D-PLNC8 β]",permeabilization of the viral envelope (Sytox Green),Langat virus (LGTV) [1],permeabilized
same,IC50,[2],19 µM
same,IC50,SARS-CoV-2,1400 nM
